The test addresses Nucleoprotein (Influenza A virus (strain A/Wilson-Smith/1933 H1N1), UniProt P15682, S377G). Briefly: Binding affinity to Influenza A virus (A/WSN/1933(H1N1)) nucleoprotein S377G mutant transfected in 293T cells assessed as inhibition of RNA dependent RNA polymerase activity. The format is cell-based, Influenza A virus (A/Weiss/1943(H1N1)).

SMILES strings stand for the structures. pIC50: −log10 of the molar value.

As to `Cn1c(=O)c2c(-c3ccccc3)n3c(c2n(C)c1=O)C(c1ccccc1F)OCC3(C)C` (configuration not stated), the negative logarithm of the IC50 (pIC50) – broadly, the IC50 on a negative log10 scale, so that one unit is a factor of ten – is 5.77.
Regarding `Cc1onc(-c2ccccc2Cl)c1C(=O)N1CCN(c2ccc([N+](=O)[O-])cc2)CC1`, the pIC50 was 6.52.

The values are drawn from ChEMBL document CHEMBL3616452 (Eur J Med Chem, 2015).
